Experimental data reported in EPA's ToxValDB 9.5.
Where “and” joins values, the source holds several entries; their conditions need not be identical. Equal entries are not always repeated.

Columns and labels:
Rattus norvegicus [1] = conditions: reproduction developmental; oral; M/F; mortality and kidney lesions
Oryctolagus sp. = conditions: for LD50: acute, dermal; for NOAEL: oral, gavage
Rattus norvegicus [2] = conditions: for LC50 / LD50: acute
Mus musculus [3] = system: Mus musculus
Mus musculus [4] = conditions: uterotrophic, Active
Rattus norvegicus [5] = conditions: subchronic, oral
[6] = reproduction developmental, oral, gavage, F, Sprague-Dawley
[7] = short-term, duration: 27 days, oral, gavage, Sprague-Dawley
[8] = short-term, duration: 28 days, oral, diet, Sprague-Dawley

## O=C([O-])c1cc(Oc2ccc(C(F)(F)F)cc2Cl)ccc1[N+](=O)[O-].[Na+] [Acifluorfen sodium]
Rattus norvegicus [1]
  LEL: 25 mg/kg-day
  NOEL: 1.25 mg/kg-day
Oryctolagus sp.; occlusive, Albino
  LD50: 1460 mg/kg
Oryctolagus sp.; developmental, duration: 24 days, New Zealand
  NOAEL: 12 mg/kg-day
Oryctolagus sp.; reproduction developmental, duration: 24 days, F, New Zealand
  NOAEL: 12 mg/kg-day
Rattus norvegicus [2]; Inhalation, albino King (Kng:(SD)BR)
  LC50: > 1.38 µg/mL
Rattus norvegicus [2]; oral, CF Nelson
  LD50: 122 mg/kg
Rattus norvegicus [2]; developmental, duration: 14 days, oral, gavage, Crl:COBS-CD-(SD)BR
  NOAEL: 20 mg/kg-day

## CCCCCCC(=O)O [Heptanoic acid]
Oryctolagus sp.; albino
  LD50: ≥ 2000 mg/kg
Mus musculus [3]; chronic, duration: 80 weeks, dermal, C3H/HeCr
  NOAEL: 50 mg
Rattus norvegicus [2]; Inhalation, Sprague-Dawley
  LC50: > 4.6 µg/mL
Rattus norvegicus [2]; oral
  LD50: 8370 mg/kg
Rattus norvegicus [2]; developmental, duration: 9 days, oral, gavage, Sprague-Dawley
  NOAEL: 1000 mg/kg-day
Rattus norvegicus [2]; reproduction developmental, duration: 9 days, oral, gavage, F, Sprague-Dawley
  NOAEL: 1000 mg/kg-day
Rattus norvegicus [2]; [6]
  LOAEL: > 1000 mg/kg-day
  NOAEL: < 200 mg/kg-day
Rattus norvegicus [2]; reproduction developmental, oral, gavage, Sprague-Dawley, generation: F1
  NOAEL: ≥ 1000 mg/kg-day and ≤ 2000 mg/kg-day
Rattus norvegicus [2]; [7]
  LOAEL: 3500 mg/kg-day
  NOAEL: 1750 mg/kg-day

## Oc1ccc(C(c2ccc(O)cc2)C(Cl)(Cl)Cl)cc1 [2,2-Bis(4-hydroxyphenyl)-1,1,1-trichloroethane]
Mus musculus [4]; duration: 3 days, injection, subcutaneous
  LEL: 100 mg/kg-day

## Cc1cc(C)c(O)c(C)c1 [2,4,6-Trimethylphenol]
Rattus norvegicus [5]; gavage, M, Sprague-Dawley, Clinical Observation: Salivation + Histopathology: Stomach/forestomach- Squamous cell metaplasia Stomach/forestomach- Edema Stomach/…
  NOEL: 10 mg/kg-day
Oryctolagus sp.; New Zealand
  LD50: > 2000 mg/kg
Rattus norvegicus [2]; oral, gavage
  LD50: > 2000 mg/kg
Rattus norvegicus [2]; reproduction developmental, duration: 4 weeks, oral, gavage, F, Sprague-Dawley
  NOAEL: ≥ 200 mg/kg-day
Rattus norvegicus [2]; reproduction developmental, duration: 4 weeks, oral, gavage, Sprague-Dawley, generation: F0
  NOAEL: ≥ 200 mg/kg-day
Rattus norvegicus [2]; reproduction developmental, duration: 4 weeks, oral, gavage, Sprague-Dawley, generation: F1
  NOAEL: ≥ 200 mg/kg-day

## O=C1OC(=O)C2CCCCC12 (stereo unspecified) [Hexahydrophthalic anhydride]
Oryctolagus sp.; New Zealand
  LD50: > 2000 mg/kg
Rattus norvegicus [2]; Inhalation, Sprague-Dawley
  LC50: > 1100 mg/m3
Rattus norvegicus [2]; oral
  LD50: 3310 mg/kg
Rattus norvegicus [2]; oral, Sprague-Dawley
  LD50: ≥ 2700 mg/kg and ≤ 2800 mg/kg

## O=[N+]([O-])c1ccc(Cl)cc1 [1-Chloro-4-nitrobenzene]
Oryctolagus sp.; developmental, duration: 13 hours, New Zealand
  NOAEL: 15 mg/kg-day
Rattus norvegicus [2]; oral, gavage, Sprague-Dawley
  LD50: 530 mg/kg
Rattus norvegicus [2]; developmental, duration: 14 days, oral, gavage, Sprague-Dawley
  NOAEL: 15 mg/kg-day
Rattus norvegicus [2]; reproduction developmental, duration: 14 days, oral, gavage, F, Sprague-Dawley
  NOAEL: < 5 mg/kg-day
Rattus norvegicus [2]; reproduction developmental, duration: 167 days, oral, gavage, Sprague-Dawley, generation: F0
  NOAEL: 0.7 mg/kg-day
Rattus norvegicus [2]; reproduction developmental, duration: 167 days, oral, gavage, Sprague-Dawley, generation: F1
  NOAEL: 5 mg/kg-day
Rattus norvegicus [2]; reproduction developmental, duration: 167 days, oral, gavage, Sprague-Dawley, generation: F2
  NOAEL: 5 mg/kg-day

## Cc1cccc([N+](=O)[O-])c1 [3-Nitrotoluene]
Rattus norvegicus [5]; diet, F, Fischer 344, Body Weight Changes: decrease + Food Consumption: decrease + Hematology: Hct decrease, Hgb decrease, RBC decrease, MCV increase, MCH …
  NOEL: < 48 mg/kg-day
Rattus norvegicus [5]; diet, M/F, Fischer 344, Body Weight Changes: decrease + Food Consumption: decrease + Hematology: Hct decrease, Hgb decrease, RBC decrease, MCV increase, MCH …
  NOEL: < 60 mg/kg-day
Oryctolagus sp.; New Zealand
  LD50: > 20000 mg/kg
Mus musculus [3]; acute, oral
  LD50: 1230 mg/kg
Mus musculus [3]; subchronic, duration: 13 weeks, oral, diet, B6C3F1
  LOAEL: ≥ 123 mg/kg-day and ≤ 133 mg/kg-day
Rattus norvegicus [2]; dermal
  LD50: > 1160 mg/kg
Rattus norvegicus [2]; inhalation
  LC50: > 2.42 µg/mL
Rattus norvegicus [2]; inhalation, Sprague-Dawley
  LC50: > 881 mg/m3
Rattus norvegicus [2]; oral
  LD50: 2120 mg/kg and 1070 mg/kg and 1780 mg/kg
Rattus norvegicus [2]; oral, Sprague-Dawley
  LD50: 1070 mg/kg
Rattus norvegicus [2]; oral, gavage, Wistar
  LD50: 2200 mg/kg and 2000 mg/kg
Rattus norvegicus [2]; subchronic, duration: 13 weeks, oral, diet, F, Fischer 344
  LOAEL: 60 mg/kg-day
Rattus norvegicus [2]; subchronic, duration: 13 weeks, oral, diet, M, Fischer 344
  LOAEL: 60 mg/kg-day

## COc1ccc(-c2coc3cc(O)cc(O)c3c2=O)cc1 [Biochanin A]
Mus musculus [4]; duration: 4 days, oral, diet
  LEL: 2.5 mg/day

## O=C(O)Cc1cc(I)c(Oc2ccc(O)c(I)c2)c(I)c1 [Tiratricol]
Mus musculus [4]; duration: 7 days, injection, subcutaneous
  LEL: 1000 mg/kg-day
Mus musculus [4]; duration: 7 days, oral
  LEL: 1000 mg/kg-day

## CC(C)CCC(C)Nc1ccc(Nc2ccccc2)cc1 (stereo unspecified) [N-(5-Methyl-2-hexyl)-N'-phenyl-p-phenylenediamine]
Oryctolagus sp.; occlusive, New Zealand
  LD50: > 5010 mg/kg
Rattus norvegicus [2]; [8]
  LOAEL: 750 ppm
  NOAEL: 500 ppm

## C=CC(C)CCC=C(C)C (stereo unspecified) [Dihydromyrcene]
Oryctolagus sp.; New Zealand
  LD50: > 5000 mg/kg
Rattus norvegicus [2]; oral, Wistar
  LD50: > 5000 mg/kg
Rattus norvegicus [2]; oral, gavage, Wistar
  LD50: > 5000 mg/kg

## CC(C)COP(=S)([S-])OCC(C)C.CC(C)COP(=S)([S-])OCC(C)C.[Zn+2]
Oryctolagus sp.; New Zealand
  LD50: > 20000 mg/kg
Rattus norvegicus [2]; oral, gavage, Wistar
  LD50: 3600 mg/kg
